# In publication PMC7869897, “Structure–functional relationship of cellular retinoic acid-binding proteins I and II interacting with natural and synthetic ligands” (Acta Crystallographica. Section D, Structural Biology, 2021):
# Experiments:
# Type in all cases: binding
# CRABPII [1] = molecular target: T1, CRABPII (Homo sapiens, UniProt P29373); test: co-crystal structure ([…] Å) and competitive fluorescence displacement of DC271
# T1 construct: gene CRABP2; GST-tagged, tag cleaved with thrombin
# T1 sequence (P29373 1-138): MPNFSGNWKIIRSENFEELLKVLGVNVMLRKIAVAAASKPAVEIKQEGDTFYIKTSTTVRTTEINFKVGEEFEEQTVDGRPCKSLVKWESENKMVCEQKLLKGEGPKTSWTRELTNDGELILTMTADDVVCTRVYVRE
# CRABPI [2] = molecular target: T2, CRABPI (Homo sapiens, UniProt P29762, L29C); test: as above
# T2 construct: gene CRABP1; His-tagged, tag cleaved with thrombin
# CRABPI [3] = molecular target: T2, CRABPI; test: crystal structure ([…] Å); co-purified fatty acid density modelled as myristic acid
# CRABPII [4] = molecular target: T1, CRABPII; test: co-crystal structure ([…] Å)
# CRABPII [5] = molecular target: T1, CRABPII; test: solvatochromic fluorescence probe, with and without CRABPII; displaced by DC645
# CRABPI [6] = molecular target: T2, CRABPI; test: fluorescent probe displaced by DC645
# T2 sequence (P29762 whole entry L29C): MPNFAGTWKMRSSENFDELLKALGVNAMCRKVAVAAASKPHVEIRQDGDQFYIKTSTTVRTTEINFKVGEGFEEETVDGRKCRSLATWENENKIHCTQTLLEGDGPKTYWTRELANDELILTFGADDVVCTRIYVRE
compound,measurement,setting,value
CC1(C)CCC(C)(C)c2nc(C#Cc3ccc(C(=O)O)cc3)cnc21 [DC645],Kd,CRABPII [1],250 ± 60 nM
same,Kd,CRABPI [2],1940 ± 110 nM
"CCCCCCCCCCCCCC(=O)O [MYR, myristic acid]",crystal structure (1.64 Å); co-purified fatty acid density modelled as myristic,CRABPI [3],a conserved water molecule hydrogen-bonded to the associated ligand modelled as the 14-carbon myristic acid
CC(C)N1CCC(C)(C)c2ccc(-c3ccc(/C=C/C(=O)O)cc3)cc21 [DC479],co-crystal structure (1.80 Å),CRABPII [4],"DC479 occupies the binding site fully, with its carboxylic acid head buried adjacent to the canonical binding triad"
CC(C)N1CCC(C)(C)c2cc(C#Cc3ccc(C(=O)O)cc3)ccc21 [DC271],"solvatochromic fluorescence probe, with and without CRABPII; displaced by DC645",CRABPII [5],DC271 presents a stark solvatochromic effect when in the presence of CRABPII owing to inclusion into the binding site
same,fluorescent probe displaced by DC645,CRABPI [6],Competitive displacement of DC271 from CRABPI-L29C by DC645 was carried out
